Our source for the EC50 and AC50 values is ChEMBL document CHEMBL1201862, “PubChem BioAssay data set” (2004).

Calls of active or inactive are those of the source. Rule as the data show it, for most assays here: actives have a measured EC50 and inactives only a lower limit. Bounds are passed on as bounds.

The test system of experiment [1] is Streptococcus sp. 'group A'. The experiment is described as follows: growth inhibition of control SK(-) GAS strain, dose response, counter-screen for streptokinase expression inhibitor project, luminescence, kanamycin, BacTiterGlo, confirmation (AID 1900). The class given is functional, organism-based. Background: The purpose of a counterscreen is to sort out artefacts and off-target activity.

The target in another experiment is T1, Streptokinase A (Streptococcus pyogenes serotype M1, UniProt P10520).
T1 sequence (P10520 whole entry): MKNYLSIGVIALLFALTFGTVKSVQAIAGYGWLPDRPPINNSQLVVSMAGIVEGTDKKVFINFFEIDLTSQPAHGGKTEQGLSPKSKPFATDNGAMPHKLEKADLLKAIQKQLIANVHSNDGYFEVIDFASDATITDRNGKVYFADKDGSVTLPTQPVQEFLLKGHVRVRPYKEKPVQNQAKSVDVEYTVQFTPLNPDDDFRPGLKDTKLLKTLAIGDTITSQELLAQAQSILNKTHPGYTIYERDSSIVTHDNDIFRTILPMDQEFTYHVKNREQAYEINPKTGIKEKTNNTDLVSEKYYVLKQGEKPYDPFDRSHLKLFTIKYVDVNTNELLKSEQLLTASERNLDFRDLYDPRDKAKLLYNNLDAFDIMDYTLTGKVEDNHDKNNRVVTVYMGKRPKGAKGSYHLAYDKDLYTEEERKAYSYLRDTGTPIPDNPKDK
Nature of the experiment: S. pyogenes streptokinase expression inhibitors, potency, dose response, plasminogen activation absorbance, OD405 (AID 1914).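 Also: secreted streptokinase activity via plasminogen activation per viability signal from cell pellet.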 It is filed as functional, Streptococcus pyogenes M1 GAS.

In the next experiment the test system is Streptococcus. The experiment is described as follows: Group A Streptococcus viability loss, dose response, counter-screen for streptokinase expression inhibitor project, luminescence, BacTiterGlo (AID 1915).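 Also: potency for reduction of bacterial viability or growth.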 It is filed as functional, organism-based.
A further experiment has as its target Cytochrome P450 3A4 (Homo sapiens, UniProt P08684).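 Also: CYP3A4 tested as one member of a cytochrome P450 panel screen.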
In a further experiment the test system is INS1. The experiment is described as follows: beta cell apoptosis inhibitors, cytokine rescue, dose response, luminescence, retest (AID 449756).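 Also: cell death triggered by IL-1 beta plus TNF-alpha plus IFN-gamma mixture; protective hits raise ATP signal compared with cytokine alone wells.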 The settings on record: Rattus norvegicus, INS1. It is filed as functional, cell-based.
The nature of experiment [2]: inhibitors of firefly luciferase expression or activity, dose response, H4 neuroglioma cells, luminescence (AID 1990). The class given is functional, cell-based.
Experiment [3] is described as follows: Luminescence Cell-Based Dose Response HTS to Identify Inhibitors of 5'UTR Stem-Loop Driven Prion Protein mRNA Translation in H4 Neuroglioblastoma Cells. [Related pubchem assays: 1827 (Project Summary), 1813 (Primary HTS)]. The class given is functional.
Experiment [4] can be described thus: inhibitors of SNCA 5'UTR-driven reporter translation, confirmation, H4 neuroglioma cells, luminescence (AID 1988). The class given is functional, cell-based.
A short description of experiment [5]: inhibitors of intracellular T. cruzi replication, confirmation, NIH3T3 host cells, beta-gal luminescence (AID 2044).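 Also: intracellular parasites grown in NIH/3T3 mouse fibroblasts as host cells; luminescent beta-galactosidase reporter signal from transgenic T. cruzi replicating inside host cells; inhibitors lower the luminescence signal.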 It is filed as functional, cell-based.
The nature of experiment [6]: cytotoxicity toward NIH3T3 fibroblasts, dose response, counter-screen, cell-based, ATP luminescence, mouse fibroblasts (AID 2010).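 Also: cells exposed to compound for about 90 hours before reading.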 The class given is functional.

Chain of Cytochrome P450 3A4 (P08684 whole entry): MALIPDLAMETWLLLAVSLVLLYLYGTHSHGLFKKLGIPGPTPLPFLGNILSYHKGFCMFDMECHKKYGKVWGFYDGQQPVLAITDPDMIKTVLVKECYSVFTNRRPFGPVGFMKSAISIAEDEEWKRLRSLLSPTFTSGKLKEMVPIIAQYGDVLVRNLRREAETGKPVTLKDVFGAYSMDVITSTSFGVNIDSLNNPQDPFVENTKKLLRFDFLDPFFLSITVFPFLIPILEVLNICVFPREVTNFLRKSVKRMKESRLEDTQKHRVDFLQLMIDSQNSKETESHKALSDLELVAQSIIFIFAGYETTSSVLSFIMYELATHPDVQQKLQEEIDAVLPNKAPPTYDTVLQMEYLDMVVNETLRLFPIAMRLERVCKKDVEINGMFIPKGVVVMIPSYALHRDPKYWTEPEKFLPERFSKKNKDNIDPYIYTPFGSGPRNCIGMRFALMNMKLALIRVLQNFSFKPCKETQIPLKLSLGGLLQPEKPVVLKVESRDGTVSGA

Consider `Cc1cc(C)n(C(=O)/C(C#N)=N/Nc2cc(Cl)cc(Cl)c2)n1`, for which the half-maximal effective concentration (EC50) (usually the midpoint of the concentration-response curve) in experiment [1] is 2.34 µM (active); at Streptokinase A it was > 150 µM (not active); in the experiment on Streptococcus it was 12.3 µM (active).
Consider `O=C(Nc1c(C(=O)N2CCCCC2)cnn1-c1ccccc1)c1ccco1`, for which the AC50 (as a rule, the concentration at which the activity in the assay is half-maximal) on Cytochrome P450 3A4 was 17.8 µM (inconclusive).
Take `COc1ccc(N2C(=O)NC(NC(=O)c3ccncc3)(C(F)(F)F)C2=O)cc1` (centres undefined): the AC50 at Cytochrome P450 3A4 was 22.4 µM (inconclusive).
As for `O=C1CSC(c2ccccc2F)N1` (centres undefined), the AC50 in the experiment with INS1 is > 260 µM (inactive).
For `Cc1ccc(C23CC4CC(CC(C(=O)N5CCN(C)CC5)(C4)C2)C3)cc1`, the half-maximal effective concentration (EC50) (in [1]; on Streptokinase A; with Streptococcus) was > 150 µM (not active) throughout.
Turning to `COc1ccc(CN(C)S(=O)(=O)c2nnc(NC(=O)c3ccccc3Br)s2)cc1`, the values for the EC50 (in experiment [1]; on Streptokinase A; with Streptococcus) were 6.23 µM (active), 9.36 µM (active) and 98.9 µM (active), respectively.
Turning to `CC(C)=CCc1c(-c2ccc(O)cc2O)oc2c3c(cc(O)c2c1=O)OC(C)(C)C=C3` [MORUSIN], the EC50 was 2.71 µM (active) in experiment [1], 1.15 µM (active) on Streptokinase A and 2.96 µM (active) with Streptococcus.
For the molecule `CCOc1ccc(-n2c(=O)[nH]cc(C(=O)Nc3ccc(OC)c(OC)c3)c2=O)cc1`, in the experiment with INS1, the AC50 is > 260 µM (inactive).
For the molecule `COc1ccc(C2CC(=O)c3cnc(N4CCN(Cc5ccccc5)CC4)nc3C2)cc1` (centres undefined), the EC50 in experiment [1] is 14.9 µM (active); on Streptokinase A, > 150 µM (not active); in the experiment on Streptococcus, 21.6 µM (active).
Consider `FC(F)(F)c1cc(Nc2ccccc2)nc(-c2ccccn2)n1`, for which the figures for the EC50 (in [1]; at Streptokinase A; with Streptococcus) were 9.52 µM (active), > 150 µM (not active) and 88.6 µM (active), respectively.
In the case of `CCCOc1ccc(/C=C/c2c([N+](=O)[O-])c(=O)n(C)c(=O)n2C)cc1`, the 50% effective concentration (EC50) in experiment [1] was 26.9 µM (active); at Streptokinase A, > 150 µM (not active); with Streptococcus it was > 150 µM (not active).
Take `CN(C)S(=O)(=O)c1cccc(NC(=O)COC(=O)c2ccc(Br)o2)c1`: the half-maximal activity concentration (AC50) on Cytochrome P450 3A4 is 20 µM (inconclusive).
For `O=C(NC(=S)N1CCN(c2nc(-c3ccccc3)cs2)CC1)c1cccnc1`, the EC50 in [1] was 5.55 µM (active); on Streptokinase A, > 150 µM (not active); with Streptococcus, > 150 µM (not active).
With `O=C(NC1CCN(Cc2ccccc2)CC1)c1cc(Br)c(Br)[nH]1`, the EC50 in [2] is > 120 µM (not active); in experiment [3] it was > 120 µM (not active); in experiment [4], > 120 µM (not active); in [5], 0.539 µM (active); in experiment [6], > 60 µM (not active).
On to `CN1CCN(c2ncc3ncc(=O)n(Cc4cccs4)c3n2)CC1`, for which the AC50 at Cytochrome P450 3A4 is 25.1 µM (inconclusive).
Regarding `COc1ccc(OC)c(-n2c(C)cc(/C=C3\C(=N)N4N=C(CC(=O)N5CCOCC5)SC4=NC3=O)c2C)c1`, the EC50 is 36.3 µM (active) in [1], > 150 µM (not active) on Streptokinase A and 87.9 µM (active) with Streptococcus.
With `COc1ccccc1NC(=O)Cn1cc(C(=O)c2ccco2)c2ccccc21`, in the experiment on INS1, the AC50 is 9.44 µM (active).
With `COc1ccc2nc(Nc3nc4cc5c(cc4s3)OCO5)sc2c1`, the figures for the EC50 (in [1]; on Streptokinase A; in the experiment on Streptococcus) were 1.17 µM (active), > 150 µM (not active) and > 150 µM (not active), respectively.
As to `CCC(C)Sc1ccc(-c2nc3ccc(C)cn3c2NCc2ccccc2)cc1OC` (centres undefined), the AC50 in the experiment with INS1 was 6.7 µM (active).
Take `COc1ccc(-c2nnc(CSc3nnc(-c4ccncc4)n3C3CCCCC3)o2)cc1OC`: the EC50 is 16.3 µM (active) in experiment [2], > 120 µM (not active) in experiment [3] and 39.4 µM (active) in experiment [4].
With `O=C(O)COc1ccccc1/C=N/NC(=O)c1cc2ccccc2cc1O`, the values for the EC50 in experiment [2], in experiment [3] and in [4] were > 120 µM (not active), > 120 µM (not active) and 18.7 µM (active), respectively.
